# Measured values taken from PubChem BioAssay AID1259407 (Chemical Carcinogenesis Research Information System (CCRIS), 2018).
# The source made the active and inactive calls. No rule for the calls is given here.
# Tested on: CCRIS mutagenicity, Ames/micronucleus/aberration tests
# Experiment: CCRIS mutagenicity studies
# [1] = Test System: AMES SALMONELLA TYPHIMURIUM, Strain/Indicator: TA98, Metabolic Activation: NONE, Method: STANDARD PLATE
# [2] = Test System: AMES SALMONELLA TYPHIMURIUM, Strain/Indicator: TA98, Metabolic Activation: RAT, LIVER, S-9, AROCLOR 1254, Method: STANDARD PLATE
# [3] = Test System: AMES SALMONELLA TYPHIMURIUM, Strain/Indicator: TA100, Metabolic Activation: NONE, Method: STANDARD PLATE
# [4] = Test System: AMES SALMONELLA TYPHIMURIUM, Strain/Indicator: TA100, Metabolic Activation: RAT, LIVER, S-9, AROCLOR 1254, Method: STANDARD PLATE
# [5] = Test System: AMES SALMONELLA TYPHIMURIUM, Strain/Indicator: TA1537, Metabolic Activation: NONE, Method: STANDARD PLATE
# [6] = Test System: AMES SALMONELLA TYPHIMURIUM, Strain/Indicator: TA1537, Metabolic Activation: RAT, LIVER, S-9, AROCLOR 1254, Method: STANDARD PLATE
# [7] = Test System: AMES SALMONELLA TYPHIMURIUM, Strain/Indicator: TA98, Metabolic Activation: NONE, Method: PREINCUBATION
# [8] = Test System: AMES SALMONELLA TYPHIMURIUM, Strain/Indicator: TA100, Metabolic Activation: NONE, Method: PREINCUBATION
# [9] = Test System: AMES SALMONELLA TYPHIMURIUM, Strain/Indicator: TA1535, Metabolic Activation: NONE, Method: PREINCUBATION
# [10] = Test System: AMES SALMONELLA TYPHIMURIUM, Strain/Indicator: TA1537, Metabolic Activation: NONE, Method: PREINCUBATION
structure (smiles),measurement,setting,value
CCC(=O)OCC(=O)[C@@]1(OC(=O)CC)[C@H](C)C[C@H]2[C@H]3[C@H]([C@@H](O)C[C@@]21C)[C@@]1(C)C=CC(=O)C=C1C[C@H]3Cl,mutagenic call,[1],inactive; negative
same,mutagenic call,[2],inactive; negative
same,mutagenic call,[3],inactive; negative
same,mutagenic call,[4],inactive; negative
same,mutagenic call,"Test System: AMES SALMONELLA TYPHIMURIUM, Strain/Indicator: TA1535, Metabolic Activation: NONE, Method: STANDARD PLATE",inactive; negative
same,mutagenic call,"Test System: AMES SALMONELLA TYPHIMURIUM, Strain/Indicator: TA1535, Metabolic Activation: RAT, LIVER, S-9, AROCLOR 1254, Method: STANDARD PLATE",inactive; negative
same,mutagenic call,[5],inactive; negative
same,mutagenic call,[6],inactive; negative
same,mutagenic call,"Test System: E. COLI, Strain/Indicator: WP2, Metabolic Activation: NONE, Method: STANDARD PLATE",inactive; negative
same,mutagenic call,"Test System: E. COLI, Strain/Indicator: WP2, Metabolic Activation: RAT, LIVER, S-9, AROCLOR 1254, Method: STANDARD PLATE",inactive; negative
same,mutagenic call,"Test System: E. COLI, Strain/Indicator: WP2 UVRA, Metabolic Activation: NONE, Method: STANDARD PLATE",inactive; negative
same,mutagenic call,"Test System: E. COLI, Strain/Indicator: WP2 UVRA, Metabolic Activation: RAT, LIVER, S-9, AROCLOR 1254, Method: STANDARD PLATE",inactive; negative
Cc1ccccc1OP(=O)(Oc1ccccc1)Oc1ccccc1,mutagenic call,"Test System: AMES SALMONELLA TYPHIMURIUM, Strain/Indicator: TA98, Metabolic Activation: HAMSTER, LIVER, S-9, AROCLOR 1254 (10%), Method: PREINCUBATION",inactive; negative
same,mutagenic call,[7],inactive; negative
same,mutagenic call,"Test System: AMES SALMONELLA TYPHIMURIUM, Strain/Indicator: TA98, Metabolic Activation: RAT, LIVER, S-9, AROCLOR 1254 (10%), Method: PREINCUBATION",inactive; negative
same,mutagenic call,"Test System: AMES SALMONELLA TYPHIMURIUM, Strain/Indicator: TA100, Metabolic Activation: HAMSTER, LIVER, S-9, AROCLOR 1254 (10%), Method: PREINCUBATION",inactive; negative
same,mutagenic call,[8],inactive; negative
same,mutagenic call,"Test System: AMES SALMONELLA TYPHIMURIUM, Strain/Indicator: TA100, Metabolic Activation: RAT, LIVER, S-9, AROCLOR 1254 (10%), Method: PREINCUBATION",inactive; negative
same,mutagenic call,"Test System: AMES SALMONELLA TYPHIMURIUM, Strain/Indicator: TA1535, Metabolic Activation: HAMSTER, LIVER, S-9, AROCLOR 1254 (10%), Method: PREINCUBATION",inactive; negative
same,mutagenic call,[9],inactive; negative
same,mutagenic call,"Test System: AMES SALMONELLA TYPHIMURIUM, Strain/Indicator: TA1535, Metabolic Activation: RAT, LIVER, S-9, AROCLOR 1254 (10%), Method: PREINCUBATION",inactive; negative
same,mutagenic call,"Test System: AMES SALMONELLA TYPHIMURIUM, Strain/Indicator: TA1537, Metabolic Activation: HAMSTER, LIVER, S-9, AROCLOR 1254 (10%), Method: PREINCUBATION",inactive; negative
same,mutagenic call,[10],inactive; negative
same,mutagenic call,"Test System: AMES SALMONELLA TYPHIMURIUM, Strain/Indicator: TA1537, Metabolic Activation: RAT, LIVER, S-9, AROCLOR 1254 (10%), Method: PREINCUBATION",inactive; negative
O=C1CCCc2ccc3c([N+](=O)[O-])c4ccccc4cc3c21,mutagenic call,"Test System: AMES SALMONELLA TYPHIMURIUM, Strain/Indicator: TA98, Metabolic Activation: NONE",inactive; negative
same,mutagenic call,"Test System: AMES SALMONELLA TYPHIMURIUM, Strain/Indicator: TA98, Metabolic Activation: S-9",inactive; negative
same,mutagenic call,"Test System: AMES SALMONELLA TYPHIMURIUM, Strain/Indicator: TA100, Metabolic Activation: NONE",inactive; negative
same,mutagenic call,"Test System: AMES SALMONELLA TYPHIMURIUM, Strain/Indicator: TA100, Metabolic Activation: S-9",inactive; negative
CCC[CH2][Sn]([Cl])([CH2]CCC)[CH2]CCC,mutagenic call,"Test System: AMES SALMONELLA TYPHIMURIUM, Strain/Indicator: TA98, Metabolic Activation: NONE, Method: SUSPENSION/PLATE",inactive; negative
same,mutagenic call,"Test System: AMES SALMONELLA TYPHIMURIUM, Strain/Indicator: TA100, Metabolic Activation: NONE, Method: SUSPENSION/PLATE",active; positive
CCCCCCCCCCC1CO1 (centres undefined),mutagenic call,"Test System: AMES SALMONELLA TYPHIMURIUM, Strain/Indicator: TA97, Metabolic Activation: HAMSTER, LIVER, S-9, AROCLOR 1254 (30%), Method: PREINCUBATION",inactive; negative
same,mutagenic call,"Test System: AMES SALMONELLA TYPHIMURIUM, Strain/Indicator: TA97, Metabolic Activation: NONE, Method: PREINCUBATION",inactive; negative
same,mutagenic call,"Test System: AMES SALMONELLA TYPHIMURIUM, Strain/Indicator: TA97, Metabolic Activation: RAT, LIVER, S-9, AROCLOR 1254 (10% & 30%), Method: PREINCUBATION",inactive; negative
same,mutagenic call,"Test System: AMES SALMONELLA TYPHIMURIUM, Strain/Indicator: TA98, Metabolic Activation: HAMSTER, LIVER, S-9, AROCLOR 1254 (10% & 30%), Method: PREINCUBATION",inactive; negative
same,mutagenic call,[7],inactive; negative
same,mutagenic call,"Test System: AMES SALMONELLA TYPHIMURIUM, Strain/Indicator: TA98, Metabolic Activation: RAT, LIVER, S-9, AROCLOR 1254 (10% & 30%), Method: PREINCUBATION",inactive; negative
same,mutagenic call,"Test System: AMES SALMONELLA TYPHIMURIUM, Strain/Indicator: TA100, Metabolic Activation: HAMSTER, LIVER, S-9, AROCLOR 1254 (10% & 30%), Method: PREINCUBATION",inactive; negative
same,mutagenic call,[8],inactive; negative
same,mutagenic call,"Test System: AMES SALMONELLA TYPHIMURIUM, Strain/Indicator: TA100, Metabolic Activation: RAT, LIVER, S-9, AROCLOR 1254 (10% & 30%), Method: PREINCUBATION",inactive; negative
same,mutagenic call,"Test System: AMES SALMONELLA TYPHIMURIUM, Strain/Indicator: TA1535, Metabolic Activation: HAMSTER, LIVER, S-9, AROCLOR 1254 (10% & 30%), Method: PREINCUBATION",inactive; negative
same,mutagenic call,[9],inactive; negative
same,mutagenic call,"Test System: AMES SALMONELLA TYPHIMURIUM, Strain/Indicator: TA1535, Metabolic Activation: RAT, LIVER, S-9, AROCLOR 1254 (10% & 30%), Method: PREINCUBATION",inactive; negative
same,mutagenic call,"Test System: AMES SALMONELLA TYPHIMURIUM, Strain/Indicator: TA1537, Metabolic Activation: HAMSTER, LIVER, S-9, AROCLOR 1254 (10% & 30%), Method: PREINCUBATION",inactive; negative
same,mutagenic call,[10],inactive; negative
same,mutagenic call,"Test System: AMES SALMONELLA TYPHIMURIUM, Strain/Indicator: TA1537, Metabolic Activation: RAT, LIVER, S-9, AROCLOR 1254 (10% & 30%), Method: PREINCUBATION",inactive; negative
same,mutagenic call,"Test System: UDS MOUSE EPIDERMIS IN VIVO/IN VITRO, Strain/Indicator: HOS:HR-1/THYMIDINE INCORPORATION, Metabolic Activation: NONE, Method: LIQUID SCINTILLATION",inactive; negative
CNC(=O)c1cccc2c(Nc3ccc(NS(C)(=O)=O)cc3OC)c3cccc(C)c3nc12,mutagenic call,[1],inactive; negative
same,mutagenic call,[2],inactive; negative
same,mutagenic call,[3],inactive; negative
same,mutagenic call,[4],inactive; negative
same,mutagenic call,"Test System: AMES SALMONELLA TYPHIMURIUM, Strain/Indicator: TA102, Metabolic Activation: NONE, Method: STANDARD PLATE",active; positive
same,mutagenic call,"Test System: AMES SALMONELLA TYPHIMURIUM, Strain/Indicator: TA102, Metabolic Activation: RAT, LIVER, S-9, AROCLOR 1254, Method: STANDARD PLATE",active; positive
same,mutagenic call,[5],active; positive
same,mutagenic call,[6],active; positive
same,mutagenic call,"Test System: CHINESE HAMSTER V-79, Strain/Indicator: V-79/6-THIOGUANINE, Metabolic Activation: NONE, Method: STANDARD PLATE",active; positive
same,mutagenic call,"Test System: CHINESE HAMSTER V-79, Strain/Indicator: V-79/OUABAIN, Metabolic Activation: NONE, Method: STANDARD PLATE",inactive; negative
CCCCC(=O)N=c1sn(C(=O)CCCC)c2ccc([N+](=O)[O-])cc12,mutagenic call,"Test System: AMES SALMONELLA TYPHIMURIUM, Strain/Indicator: TA100, Metabolic Activation: S-9, Method: STANDARD PLATE",active; positive
Cn1ccc2c3c(ccc4ccc(O)cc43)ccc21,mutagenic call,[2],inactive; negative
same,mutagenic call,"Test System: AMES SALMONELLA TYPHIMURIUM, Strain/Indicator: TA98, Metabolic Activation: RAT, LIVER, S-9, AROCLOR, Method: STANDARD PLATE",active; positive
